Measured values reported in patent US20240342199A1, “COMBINATION THERAPIES TARGETING MITOCHONDRIA FOR CANCER THERAPY” (The Wistar Institute of Anatomy and Biology, priority 2014, published 2024).
“Also recorded” adds a separate entry of the source.

Legend:
PI4 kinase = conditions: concentration of 50 μM; cited from earlier work
PI3 kinase = conditions: concentration of 50 μM; cited from earlier work
c-Src = c-Src (Homo sapiens, UniProt P12931); conditions: concentration of 50 μM; cited from earlier work
MAP kinase = conditions: concentration of 50 μM; cited from earlier work
PKC = conditions: concentration of 50 μM; cited from earlier work
LN229 or PC3 cells [1] = test: Cell cycle, proliferation and viability after PI3K inhibition; type: cell-based, Human
Experimental: (§1) Mitochondrial integrity and cell viability. LN229 or U251 cells were treated with vehicle (DMSO), PI3K inhibitors, BEZ (0.5 μM) or LY294002 (50 μM), alone or combination with Gamitrinib (0.5-5 μM, respectively) for 24 h, and analyzed for changes in mitochondrial membrane potential by JC-1 staining and multiparametric flow cytometry, as described. For cell viability, LN229, U87 or U251 cells treated with vehicle, PI3K inhibitors BEZ or LY294002, or, alternatively, transfected with control cDNA or Δ-p85 dominant negative PI3K mutant, alone or in combination with Gamitrinib, were examined by a 3 (4,5-dimethyl-thyazoyl-2-yl)2,5 diphenyltetrazolium bromide (MTT) colorimetric assay. Changes in cell viability in LN229 cells exposed to PX-866 (0-25 μM) were monitored by Trypan blue staining, or, alternatively, MTT. For apoptosis, LN229 cells (1×10^6) treated with vehicle, Gamitrinib or PI3K inhibitors (BEZ, LY294002), alone or in combination for 24 h, were labeled for annexin V plus propidium iodide (PI) (BD Biosciences), and analyzed by multiparametric flow cytometry (BD), as described. Alternatively, cytosolic fractions isolated from treated tumor cells were analyzed for released cytochrome c, by Western blotting. For analysis of colony-forming ability, PC3 or LN229 cells were treated with vehicle (Veh) or PX-866 (10 μM) and analyzed in a colony formation assay after 12 days. Colonies were stained with crystal violet. In some experiments, LN229 cells treated with PX-866 (0-25 μM) were analyzed for DNA content by PI staining and flow cytometry.

LN229 or PC3 cells [2] = test: Analysis of bioenergetics (ATP, glucose, lactate, oxygen consumption); type: cell-based, Human
[3] = system: Akt2 (Ser474) in cytosol and mitochondria; test: Phosphorylated Akt in cytosol and mitochondrial extracts by Western blotting; type: cell-based, Human; conditions: cytosol and mitochondrial extracts, 48 h
Experimental: Subcellular and submitochondrial fractionation. Mitochondrial fractions were isolated using an ApoAlertTM cell fractionation kit (CLONTECH), as described. Submitochondrial fractions comprising outer membrane (OM), inner membrane (IM), inter-membrane space (IMS) and matrix were prepared as described.

CypD = CypD level and Ser phosphorylation in reconstituted LN229 cells; type: cell-based, Human
Text: Mutant constructs were confirmed by DNA sequencing and transfected in CypD-depleted cells for reconstitution experiments. In some experiments, CypD depleted LN229 cells were transfected with WT or mutant CypD constructs and analyzed for bioenergetics (glucose utilization, oxygen consumption, ATP production) or cell viability (JC1 or Annexin V multiparametri staining, cytochrome c release) readouts.

GBM organotypic cultures = test: Tumor kinome transcription (OpenArray real-time PCR) in GBM organotypic cultures; type: cell-based, Human
Experimental: Organotypic cultures. Short-term organotypic cultures from the different patient samples were established as described previously. […]
Bioinformatics analysis. Transcriptional changes in the human kinome following PI3K inhibition were analyzed using OpenArray real-time PCR amplification. […] Ct values from the experiment were exported from BioTrove OpenArray Real-Time qPCR Analysis Software v1.0.4. ΔΔCt value method was used to calculate fold changes between sample pairs with endogenous control Ct value calculated as average among 15 endogenous controls on the array: ALAS1, B2M, CASC3, G6PD, GAPDH, GUSB, HMBS, HPRT1, IPO8, POLR2A, PPIA, RPLP0, TFRC, UBE2D2, and YWHAZ. P-values for differential expression were calculated using fold changes of 15 endogenous controls as a null distribution.

PC3 or LN229 cells = test: Colony formation assay; type: cell-based, Human; conditions: 10 μM, 12 days, compared with control cultures
Experimental: as §1, with “Colonies were stained with crystal violet. In some experiments, LN229 cells treated with PX-866 (0-25 μM) were analyzed for DNA content by PI staining and flow cytometry.” left out

Akt phosphorylation = Akt phosphorylation in tumor cell lines by Western blotting; type: cell-based, Human; conditions: high (10 μM) and low (0.8 μM) concentrations, within 24 hours
tumor cells = test: Senescence markers (SA-β-Gal, PML nuclear bodies); type: cell-based; conditions: treated tumor cells
LN229 cells [4] = test: Global metabolomics screening; type: cell-based, Human; conditions: 10 μM for 48 h
Experimental: Metabolomics screen and Reverse Phase Protein Array (RPPA). Changes in expression of 301 individual metabolites in LN229 cells treated with PX-866 (10 μM for 48 h) were determined in a global metabolomics screening as described previously. For RPPA, PC3 or LN229 cells were treated with vehicle, PX-866 (10 μM) or the combination of PX-866 plus Gamitrinib (5 μM) for 24 h. Data in triplicate samples were normalized for protein loading, converted to linear values and then log2 transformed.
Statistical analysis. Data were analyzed using the two-sided unpaired/tests using a GraphPad software package (Prism 4.0) for Windows. Data are expressed as mean±SEM of replicates of a representative experiment out of at least two independent determinations. A p value of ≤0.05 was considered as statistically significant. For RPPA screens, the False Discovery Rate (FDR) values were estimated using Benjamini-Hochberg correction for multiple testing and changes with FDR<20% of at least 1.2 fold were called statistically significant. […] However, biochemicals that were detected in all samples from one or more groups, but not in samples from other groups, were assumed to be near the lower limit of detection in the groups in which they were not detected. In this case, the lowest detected level of these biochemicals was imputed for samples in which that biochemical was not detected. […]

LN229 cells [5] = test: Bliss independence analysis of Gamitrinib and kinase inhibitors; type: cell-based, Human; conditions: Gamitrinib with NVP-BEZ235, GDC-0941 or AZD6482, 7×7 matrix, 18 h
Experimental: A synergistic anticancer activity of the combination of Gamitrinib and selected kinase inhibitors was further assessed by Bliss independence analysis. For these experiments, LN229 cells were treated with Gamitrinib (concentration range 2-0.008 μmol/L) and selected kinase inhibitors (concentration range 2-0.008 μmol/L) in a 7×7 matrix for 18 h at 37° C. Cell viability was measured by addition of resazurin, and the fractional growth inhibition under the various conditions tested was determined as described above. The Bliss expectation (E) for a combined response was calculated by the equation: E=(A+B)−(A×B) where A and B are the fractional growth inhibitions of drug A and B at a given concentration. […] Each synergy experiment was done two independent times, in duplicate.

[6] = system: Ser473-phosphorylated Akt (pAkt); test: Ser473-phosphorylated Akt in patient-derived organotypic cultures; type: cell-based, Human; conditions: Gamitrinib added to PI3K inhibitor-treated tumor organoids
Experimental: Organotypic cultures. Short-term organotypic cultures from the different patient samples were established as described previously. Briefly, precise thick tissue slices (300 μm) were obtained from each case by vibratome serial cutting (VT1200, Leica Microsystems, Milan, Italy), and cultured in six-well plates on organotypic inserts (Millicell PICM ORG, Merck Millipore) for up to 48 h in 1 ml of Ham-F12 complete medium supplemented with vehicle (DMSO, 2.5 μl), pan-PI3K inhibitor LY294002 (50 or 100 μM) or PX-886 (2.5, 5 or 10 μM), or mitochondrial-targeted small molecule Heat Shock Protein-90 (Hsp90) inhibitor, 10 Gamitrinib (GA mitochondrial matrix inhibitor, 10 or 25 μM), or the combination of PX-886 plus Gamitrinib (each agent used at 10 μM). At the end of the experiment, one tissue slice per condition was formalin-fixed and paraffin-embedded (FFPE), and processed for morphological and immunohistochemical analysis. An additional tissue slice collected at the end of the experiment was embedded in optimal cutting temperature, and snap-frozen for molecular or immunofluorescence studies.

LN229 cells [7] = test: High-throughput screening: cell viability (resazurin), compounds with DMSO or Gamitrinib; type: cell-based, Human; conditions: Gamitrinib 1 μM in combination
Experimental: High-throughput screening and synergy experiments. Compounds for the molecular targeted cancer therapeutics were either purchased from SelleckChem or acquired under Material Transfer Agreement (MTA) with the Wistar Institute MTA. Compounds were suspended in DMSO. The purity and identity of the compounds was confirmed by LC/MS for a fraction of the compounds. Source plates with a 10 point dilution series (5-fold dilutions, ranging from 10-0.0001 μmol/L) were prepared for screening. […] Cell viability was determined by the addition of resazurin to a final concentration of 50 μM and incubation for 8 h. Fluorescence intensity (excitation, 560 nm, emission, 590 nm) was determined on an Envision Xcite Multilabel Reader (Perkin-Elmer), and the fractional growth inhibition was determined by normalizing assay wells to the aggregated average responses of positive control (10 μM doxorubicin) and negative control (0.2% DMSO) treatments (n=12).

[8] = PX-866 (10 μM), AZD6482 (10 μM) or GDC0941 (2 μM) for 48 h

Sequence of c-Src (P12931 whole entry, species assumed): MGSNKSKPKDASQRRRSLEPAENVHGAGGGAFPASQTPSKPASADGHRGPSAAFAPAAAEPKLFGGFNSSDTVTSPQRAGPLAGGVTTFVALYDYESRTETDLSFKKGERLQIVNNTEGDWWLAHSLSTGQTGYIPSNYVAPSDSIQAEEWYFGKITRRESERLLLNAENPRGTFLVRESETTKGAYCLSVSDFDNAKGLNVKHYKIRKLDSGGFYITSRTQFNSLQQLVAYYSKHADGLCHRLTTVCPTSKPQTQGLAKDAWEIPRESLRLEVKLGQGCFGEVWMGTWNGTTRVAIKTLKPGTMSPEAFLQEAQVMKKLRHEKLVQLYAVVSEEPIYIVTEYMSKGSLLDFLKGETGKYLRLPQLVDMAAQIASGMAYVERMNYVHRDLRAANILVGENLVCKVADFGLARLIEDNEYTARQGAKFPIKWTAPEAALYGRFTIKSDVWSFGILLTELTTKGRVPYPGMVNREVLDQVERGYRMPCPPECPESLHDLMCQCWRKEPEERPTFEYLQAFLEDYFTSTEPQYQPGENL

O=c1cc(N2CCOCC2)oc2c(-c3ccccc3)cccc12 [LY294002, 2-(4-morpholinyl)-8-phenyl-4H-1-benzopyran-4-one]
inhibition of PI4 kinase (PI4 kinase): did not inhibit | PI3 kinase activity (PI3 kinase): specifically abolished PI3 kinase activity | inhibition of c-Src (c-Src): did not inhibit | inhibition of MAP kinase (MAP kinase): did not inhibit | inhibition of PKC (PKC): did not inhibit

C=CCN(/C=C1/C(=O)O[C@H](COC)[C@@]2(C)C1=C(O)C(=O)C1=C2[C@H](OC(C)=O)C[C@]2(C)C(=O)CC[C@@H]12)CC=C [PX-866]
cell cycle (DNA content) (LN229 or PC3 cells [1]; 10 μM): arrested in the G1 phase of the cell cycle | proliferation (direct cell counting) (LN229 or PC3 cells [1]; 10 μM): reduced proliferation | viability (Trypan blue, MTT) (LN229 or PC3 cells [1]; LN229 cells, 48 h): without significant decrease in viability | oxygen consumption (LN229 or PC3 cells [2]; 10 μM for 48 h): suppression of oxygen consumption | ATP production (LN229 or PC3 cells [2]; [8]): reduced ATP production | glucose utilization (LN229 or PC3 cells [2]; [8]): less glucose utilization | lactate production (LN229 or PC3 cells [2]; [8]): less | phosphorylation of Akt2 on Ser474 [3]: robust and concentration-dependent isoform-specific phosphorylation of Akt2 on Ser474 | phosphorylated Ser (pSer) reactivity of WT CypD (CypD; immunoprecipitated from reconstituted LN229 cells): increased this response; also recorded: increased reactivity with an antibody to pSer | levels of endogenous or overexpressed CypD (CypD; reconstituted cells, 10 μM for 48 h): did not affect | expression of kinome genes (GBM organotypic cultures; PX-866 (10 μM) for 48 h, GBM organotypic cultures): increased the expression of genes associated with growth factor signaling | long-term colony forming ability (PC3 or LN229 cells): unaffected | Akt phosphorylation (Akt phosphorylation): induced Akt phosphorylation | PML nuclear body number (tumor cells): higher PML nuclear body number | senescence-associated β-galactosidase staining (SA-β-Gal) (tumor cells): increased β-galactosidase staining | metabolome profile (LN229 cells [4]): extensive metabolic reprogramming

Gamitrinib
tumor cell proliferation, Bliss independence analysis (LN229 cells [5]): synergistically inhibited tumor cell proliferation | reactivation of Akt induced by PI3K inhibition [6]: prevented the reactivation of Akt | transcriptional changes induced by PI3K inhibition (GBM organotypic cultures; Gamitrinib added to PX-866-treated tumor organoids): largely reversed the transcriptional changes induced by PI3K inhibition | effect on anticancer activity of PI3K/Akt/MTOR pathway antagonists (LN229 cells [7]): potently enhanced the anticancer activity
